The results in this text go back to PubChem BioAssay AID1918930 (Molecular Pharmacology Branch, DTP, NCI, 2023).

pIC50: −log10 of the molar value. Where “and” joins values, the source holds several entries; their conditions need not be identical. Identical values can stand only once. Bounds are passed on as bounds.

For the test, the system named is 233499-124-R-J3-PDC complex spheroid viability, % test/control. In words: Anticancer human tumor 233499-124-R-J3-PDC patient-derived colon adenocarcinoma cell line growth inhibition. As to conditions: for viability, T/C: stronger effect = lower value; for pIC50: curve of compound. The source says: Multicellular complex tumor spheroid response to LSD1 Inhibitor Iadademstat in combination with a variety of drugs and investigational agents in selected tumor cell lines
The current study was undertaken to assess response to LSD1 inhibitors in combination with standard-of-care drugs and investigational agents in solid tumor complex spheroid models as well as in the K-562 leukemia. Complex spheroids include a stromal component modeled by human endothelial cells (HUVEC) and fibroblasts modeled by human mesenchymal stem cells (MSCs). The concentration ranges selected for each drug and investigational agent were based upon clinically achievable concentrations if the clinical Cmax of the agent was known.
Compounds. The drugs and investigational agents used in this study are listed on Table 1. All of the agents used, including staurosporine (NSC755774) and gemcitabine (NSC613327), were obtained from the Developmental Therapeutics Program, NCI. FDA-approved anticancer drugs are available from the NCI at http://dtp.nci.nih.gov/branches/dscb/oncology_drugset_explanation.html. Drugs and investigational agents were >95% pure by proton nuclear magnetic resonance (NMR) and liquid chromatography/mass spectrometry (LC/MS). Stock solutions were prepared at 400x in DMSO, stored at -70 degrees C, and diluted in fresh medium prior to their use. The final concentration of DMSO in cell culture wells never exceeded 0.25% (v/v). The FDA-approved anticancer drug set is available from the Developmental Therapeutics Program at https://dtp.cancer.gov/organization/dscb/obtaining/available_plates.htm. All drugs and investigational agents were tested over a range starting from a high concentration at or near the clinical Cmax and decreasing in half-log increments. If the clinical Cmax for an agent had not been determined, the highest concentration tested was 10 microM.
Cell Lines. The patient-derived cancer cell (PDC) lines: 292921-168-R-J2-PDC, K24384-001-R-PDC, and 521955-158-R2-J5-PDC pancreatic carcinomas, 556581-035-R-J1 ovarian carcinoma, 324938-238-R-J1-PDC, 855422-203-R-J1-PDC and 883617-216-R-J1-PDC urothelial bladder carcinomas, 743489-274-T-PDC renal cell carcinoma, 138582-R-J1 Merkel cell tumor, K60290-347-R-J1 and K57222-313-R-J1-PDC glioblastomas, 653999-131-R-J2-PDC, LG0703-F948-PDC, and 349418-098-R-PDC non-small cell lung carcinomas, 885512-296-R-J2-PDC, 171881-019-R-J1-PDC breast carcinomas and 186277-243-T-J2-PDC and 233499-124-R-J2-PDC colon carcinomas were obtained from the NCI Patient-Derived Models Repository (PDMR, https://pdmr.cancer.gov). The established cell lines NCI/ADR-RES (RRID:CVCL_14520 and OVCAR-5 (RRID:CVCL_1628) ovarian carcinomas, 786-O (RRID:CVCL_1051) and A498 (RRID:CVCL_A498) renal cell carcinoma, NCI-H211 (ATCC, cat. CRL-5824; RRID:CVCL_1529), NCI-H196 (ATCC, cat. CRL-5823, RRID:CVCL_1509), SW 1271 (ATCC, cat. CRL-2177, RRID:CVCL_1716) and NCI-H1876 (ATCC, cat. CRL-5902, RRID:CVCL_1503) small cell lung carcinomas, MDA-MB-231 (RRID:CVCL_0062) and MDA-MB-468 (RRID:CVCL_0419)breast carcinomas (10-12). Pooled donor human umbilical vein endothelial cells (HUVEC, Lonza, cat. CC-2519) and human mesenchymal stem cells (hMSC, Lonza, cat. PT-2501) were purchased from Lonza (Walkersville, MD).
Cell Culture. All cells were maintained in an incubator at 37 degrees C and 5% CO2 with 95% humidity. The PDC lines were cultured according to standard operating procedures established by the NCI PDMR (https://pdmr.cancer.gov). Briefly all PDCs were thawed and cultured in Matrigel-coated flasks prepared with a working solution of 1X Ham's F-12 nutrient mix, without supplementation (Invitrogen, Waltham, MA, cat. 11765054), 100 U/mL penicillin-streptomycin (Invitrogen, cat. 15140122), and 2.5% Matrigel (Corning Inc., Corning, NY, cat. 354248) for the first three passages. […]

Usually viability, T/C stands for the result in the treated group divided by that in the control group, in per cent. As a reminder, the pIC50 is the negative decadic logarithm of the IC50, by convention in mol/L.
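Note: spheroids exposed to agents for one week before readout.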

In the case of `Cn1ncnc1C1c2n[nH]c(=O)c3cc(F)cc(c23)NC1c1ccc(F)cc1` (configuration not stated), the negative-log IC50 (pIC50) was under 7.00. Also, under “compound 0.000316 µM”, the viability, T/C is 105% and 92.2%. In addition, the viability, T/C (compound 0.001 µM) was 95.1% and 80.9%. Further, the viability, T/C (compound 0.00316 µM) was 91.4% and 98%. In addition, the viability, T/C (compound 0.01 µM) is 77.6% and 88.7%. For the same molecule, the viability, T/C (compound 0.0316 µM) was 77.7% and 85.1%. For the same molecule, the viability, T/C (compound 0.1 µM) is 93.4% and 82.7%.

With `NS(=O)(=O)OCC1CC(n2ccc3c(NC4CCc5ccccc54)ncnc32)CC1O` (configuration not stated), the pIC50 is 7.35 and 7.31. Also, the viability, T/C (compound 0.00949 µM) was 106% and 87.5%. The viability, T/C (compound 0.03 µM) was 58.4% and 62.6%. Besides, under “compound 0.0949 µM”, the viability, T/C is 35.3% and 33.8%. For the same molecule, where the note is “compound 0.3 µM”, the viability, T/C was 12.7% and 6.06%. Besides, for the setting “compound 0.949 µM”, the viability, T/C is 7.91% and 3.62%. Where the note is “compound 3 µM”, the viability, T/C was 6.79% and 2.48%.

Consider `Nc1ccccc1NC(=O)c1ccc(CNC(=O)OCc2cccnc2)cc1`, for which the pIC50 is 6.20 and 6.40. Further, where the note is “compound 0.00949 µM”, the viability, T/C was 90.9% and 83.5%. For the same molecule, the viability, T/C (compound 0.03 µM) was 101% and 93.5%. Besides, the viability, T/C (compound 0.0949 µM) is 84.8% and 81%. The viability, T/C (compound 0.3 µM) was 90% and 63.2%. Besides, the viability, T/C (compound 0.949 µM) was 28.9% and 12.3%. In addition, the viability, T/C (compound 3 µM) was 4.68% and 3.17%.

As to `Nc1ccn(C2OC(CO)C(O)C2(F)F)c(=O)n1` (configuration not stated), the viability, T/C reads like this: (compound 0.000949 µM) 69.7% and 82.2%; (compound 0.003 µM) 36.4% and 84.6%; (compound 0.00949 µM) 40.4% and 80.5%; (compound 0.03 µM) 26.6% and 68.5%; (compound 0.0949 µM) 31% and 48.6%; (compound 0.3 µM) 54.3% and 46.2%.

With `Nc1ncn(C2CC(O)C(CO)O2)c(=O)n1` (configuration not stated), the negative-log IC50 (pIC50) was under 6.00. The viability, T/C (compound 0.00316 µM) was 81% and 90.1%. For the same molecule, for the setting “compound 0.01 µM”, the viability, T/C was 88.7% and 101%. The viability, T/C (compound 0.0316 µM) is 83.8% and 87.1%. Besides, under “compound 0.1 µM”, the viability, T/C was 89.8% and 79.8%. The viability, T/C (compound 0.316 µM) was 106% and 94.6%. Besides, the viability, T/C (compound 1 µM) was 104% and 77.4%.

For the molecule `Nc1ncn(C2CC(O)C(CO)S2)c(=O)n1` (configuration not stated), the pIC50 is 6.88 and 6.80. For the setting “compound 0.000949 µM”, the viability, T/C was 92.5% and 83.6%. Also, the viability, T/C (compound 0.003 µM) is 96% and 87.5%. For the same molecule, the viability, T/C (compound 0.00949 µM) is 119% and 95.5%. Besides, the viability, T/C (compound 0.03 µM) was 100% and 94%. Besides, under “compound 0.0949 µM”, the viability, T/C is 59.1% and 62.5%. Moreover, the viability, T/C (compound 0.3 µM) is 28.4% and 35%.

For the molecule `O=C(C=Cc1cccc(S(=O)(=O)Nc2ccccc2)c1)NO`, the negative logarithm of the IC50 (pIC50) was 5.52 and < 5.52. Also, the viability, T/C (compound 0.00949 µM) was 93.1% and 104%. The viability, T/C (compound 0.03 µM) is 116% and 98.3%. For the same molecule, the viability, T/C (compound 0.0949 µM) was 128% and 104%. Also, the viability, T/C (compound 0.3 µM) was 141% and 98.9%. In addition, where the note is “compound 0.949 µM”, the viability, T/C is 26.7% and 9.27%. Also, the viability, T/C (compound 3 µM) was 96.4% and 90.1%.

With `O=C(C=Cn1cnc(-c2cc(C(F)(F)F)cc(C(F)(F)F)c2)n1)NNc1cnccn1`, the negative-log IC50 (pIC50) was 6.72 and < 6.00. The viability, T/C (compound 0.00316 µM) is 102% and 76.2%. Moreover, for the setting “compound 0.01 µM”, the viability, T/C was 106% and 79.7%. Further, under “compound 0.0316 µM”, the viability, T/C was 98.9% and 61.4%. In addition, the viability, T/C (compound 0.1 µM) is 54.3% and 71.6%. In addition, under “compound 0.316 µM”, the viability, T/C was 46.3% and 88.5%. For the setting “compound 1 µM”, the viability, T/C is 11.6% and 62%.

As to `O=C(c1cc(Cc2n[nH]c(=O)c3ccccc23)ccc1F)N1CCN(C(=O)C2CC2)CC1`, the pIC50 is under 5.00. The viability, T/C (compound 0.0316 µM) was 91.1% and 97.1%. For the same molecule, the viability, T/C (compound 0.1 µM) was 92.6% and 76.9%. Moreover, the viability, T/C (compound 0.316 µM) is 113% and 88.8%. Under “compound 1 µM”, the viability, T/C is 97.3% and 90.8%. For the same molecule, the viability, T/C (compound 3.16 µM) is 76.1% and 75.5%. For the same molecule, the viability, T/C (compound 10 µM) is 80.3% and 84.2%.
